{"source": "patent US10376553B2", "about": "“Pharmaceutical composition for preventing and treating chronic obstructive lung disease containing, as active ingredient, Magnoliae flos extract, fraction, or active fraction thereof” (KOREA RESEARCH INSTITUTE OF BIOSCIENCE AND BIOTECHNOLOGY, priority 2015, dated 2019)", "type_in_all_cases": "in vivo, C57BL/6N mice", "key": {"[1]": {"test_system": "inflammatory cells in the bronchoalveolar lavage fluid", "assay": "Inflammatory cells in bronchoalveolar lavage fluid of the COPD mouse model (cigarette smoke + LPS)", "settings": "10 mg/kg p.o., BALF, vs COPD-induced group", "description": "Six-week-old male SPF (specific pathogen-free) C57BL/6N mice (22 to 24 g) were supplied by Koatech (Korea). These animals were fed with a sufficient amount of solid feed (no antibiotics, Samyang Feed Co.) and water until the day of the experiment. They were allowed to adapt for 1 week in a light-dark cycle environment at a temperature of 22±2° C. and a humidity of 55±15%, and then subjected to the experiment.\nThe animal model was exposed to cigarette smoke to induce chronic obstructive pulmonary disease. 3R4F Kentuchy Reference Cigarettes as standard cigarettes for use to generate cigarette smoke were supplied by University of California (USA). The standard cigarettes contain 9.4 mg of tar, 11 mg of total particle matter (TPM), and 12 mg of carbon monoxide per 1 cigarette. The standard cigarettes were used after harmonization for 48 hours to 72 hours at a temperature of 22±1° C. and a humidity of 60±2%. Further, Cigarette Smoke Generator manufactured by Korea BioLink (Korea) was used for exposure to cigarette smoke. Cigarette smoke was inhaled for 1 hour (8 pcs/hour) for 7 days from 1 hour after oral administration of a sample. 10 μg of LPS (lipopolysaccharide) in PBS 50 μL was injected intranasally to each mouse on the 4th day of the experiment after the mouse was anesthetized with zoletyl 1 hour before the exposure to cigarette smoke. The smoking condition was 8 puffs per 1 standard cigarette (volume: 45 mL, duration: 2 seconds, and interval: 1 time/min).\nThe active fraction of Magnoliae flos (15, 30 mg/kg) and roflumilast (10 mg/kg) as therapeutic substances were dissolved in 0.5% sodium carboxymethyl cellulose and were orally administered 1 hour before the exposure to cigarette smoke.\nThe experimental groups were divided into (i) normal control (NC) group; (ii) cigarette smoke+LPS exposure group (COPD); (iii) experimental group administered with roflumilast (ROF) (10 mg/kg, p.o) 1 hour before the exposure to cigarette smoke+LPS; and (iv) experimental group administered with the active fraction of Magnoliae flos (15, 30 mg/kg, p.o; Magnoliae flos 15 and Magnoliae flos 30) 1 hour before the exposure to cigarette smoke+LPS. […] Then, they were administered in the same manner as above.\nThe bronchial alveolar lavage fluid was separated from the animal model treated with the active fraction and the compounds of Magnoliae flos in <Test Example 6-2> above in the following manner, and the number of inflammatory cells was measured.\nSpecifically, a mouse sonde was inserted into the bronchial tube, a 1 mL syringe containing 0.7 mL of DPBS (Dulbecco's Phosphate-Buffered Saline) was connected thereto, and DPBS was injected into the lung. The injected DPBS was recovered, and this procedure was repeated twice. The bronchoalveolar lavage fluid separated by DPBS was centrifuged at 1,500 rpm for 15 minutes to make a cell pellet. The supernatant was stored frozen at −70° C. for cytokine analysis. Each cell obtained was suspended in DPBS, attached to a slide glass using a cytospin centrifuge, and Diff-Quik stained. The number of inflammatory cells in each sample was counted through microscopic examination, and the inhibition rate was calculated according to the following Equation 3.\nInhibition rate=(Value of COPD-induced group−value of target substance administered group)×100/(Value of COPD-induced group) [Equation 3]"}, "[2]": {"test_system": "reactive oxygen species", "assay": "Production of active oxygen species in BALF of the COPD model (DCF-DA)", "settings": "10 mg/kg p.o., vs COPD-induced group", "description": "Production of active oxygen species in the bronchoalveolar lavage fluid obtained in <Test Example 6-3> above was confirmed by the following method.\nSpecifically, the separated BALF (200 μL) was treated to the final concentration of 20 μM of DCF-DA (dihydrodichlorofluorescein diacetate, Sigma-Aldrich, USA), followed by culturing for 30 minutes and measurement using Fluorescence (Molecular Device, USA). The inhibition rate was calculated by Equation 3 above."}, "[3]": {"test_system": "IL-6", "assay": "IL-6 level in BALF of the COPD model (ELISA)", "settings": "vs COPD-induced group", "description": "(§1) Cytokines were measured in the cell supernatant obtained in <Test Example 6-3> above by the following method. Specifically, the levels of IL-6 (R & D System, USA) and TNF-α (BD Bioscience, USA) in the separated BALF were measured by enzyme-linked immuno-sorbent assay (ELISA). Each cytokine analysis was carried out according to the manufacturer's test method."}, "[4]": {"test_system": "TNF-α", "assay": "TNF-α level in BALF of the COPD model (ELISA)", "settings": "10 mg/kg p.o., BALF, vs COPD-induced group", "description": "as §1"}, "[5]": {"test_system": "infiltration of inflammatory cells in the lung tissue", "assay": "Lung tissue histopathology (H&E) in the COPD model", "settings": "vs COPD-induced group", "description": "Specifically, the lung was taken out and immediately fixed in a 10% formaldehyde solution, which was then sliced and washed with running water for 8 hours. It was then embedded in […] and Hematoxylin & Eosin stained, and the pathological changes in the lung tissue were examined using an optical microscope."}}, "note": "Values joined by “and” are separate entries in the source; they are usually repeats but may differ in a detail not shown here. Identical values can stand only once."}
{"smiles": "O=C(Nc1c(Cl)cncc1Cl)c1ccc(OC(F)F)c(OCC2CC2)c1", "note": "[ROF, roflumilast, reference compound]", "values": [{"measurement": "Inhibition rate of inflammatory cell infiltration (%) Macrophage", "setting": "[1]", "value": "36.9 ± 15.0% and 30.6 ± 9.9%"}, {"measurement": "Inhibition rate of inflammatory cell infiltration (%) Neutrophil", "setting": "[1]", "value": "31.9 ± 7.6% and 37.4 ± 8.3%"}, {"measurement": "Inhibition rate of inflammatory cell infiltration (%) Total inflammatory cells", "setting": "[1]", "value": "34.9 ± 4.6% and 39.4 ± 7.2%"}, {"measurement": "Active oxygen inhibition rate (%)", "setting": "[2]", "value": "25.9 ± 4.3", "unit": "%"}, {"measurement": "IL-6 in the bronchoalveolar lavage fluid (in words)", "setting": "[3]", "value": "decreased"}, {"measurement": "TNF-α inhibition rate (%)", "setting": "[4]", "value": "44.8 ± 3.8% and 30.8 ± 5.9%"}, {"measurement": "infiltration of inflammatory cells around the alveoli and bronchi (in words)", "setting": "[5]", "value": "reduced"}]}
